≈ marks a conversion by molar mass, not a printed value. Read-outs that look alike come from different tables or passages of the source.
Experiments:
B. subtilis ATCC 23857 = experiment: Minimal inhibitory concentration, microbroth dilution; type: cell-based
Summary of the method: (§1)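 MICs were determined by CLSI broth microdilution, using two-fold compound dilutions from a final 200 μM and about 10^5 cfu/mL inoculum. Plates were incubated aerobically at 37 °C overnight. The MIC was read visually as the lowest concentration preventing growth.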

S. aureus ATCC 29213 = experiment: as above; type: cell-based
Summary of the method: as §1

S. aureus NRS70 = experiment: as above; type: cell-based
Summary of the method: as §1

S. aureus USA 300 ΔClpP = experiment: as above; type: cell-based, Staphylococcus aureus; details: ClpP inactivated strain
Summary of the method: as §1

S. pyogenes ATCC 700294 = experiment: as above; type: cell-based
Summary of the method: (§2)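 Twofold serial dilutions in broth per CLSI M7-A7 microbroth dilution, incubated aerobically overnight at 37° C. MIC read visually as lowest concentration preventing bacterial growth.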

S. pneumoniae R6 = experiment: as above; type: cell-based
Summary of the method: as §2

[1] = system: Vero (kidney epithelial cells; ATCC CCL-81); experiment: Cytotoxicity assay, CellTiter-Glo cell viability; type: cell-based; details: Vero cells, 72 hours
Summary of the method: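 Vero cells seeded overnight at 37 °C in DMEM with 10% FBS, then exposed to serial dilutions of compound for 72 h. Viability read by CellTiter-Glo luminescence; IC50 from duplicates, given as the range of two independent experiments.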

S. aureus USA 300 = experiment: Minimal inhibitory concentration, microbroth dilution; type: cell-based; details: Staphylococcus aureus, USA300; read-out: Minimal Inhibitory Concentration S. aureus USA 300
Summary of the method: as §1

[2] = Bacillus subtilis, ATCC23857; read-out: Minimal Inhibitory Concentration B. subtilis ATCC 23857
[3] = Staphylococcus aureus, ATCC29213; read-out: Minimal Inhibitory Concentration S. aureus ATCC 29213
[4] = Staphylococcus aureus, NRS70; read-out: Minimal Inhibitory Concentration S. aureus NRS70
[5] = Streptococcus pyogenes, ATCC700294; read-out: Minimal Inhibitory Concentration S. pyogenes ATCC 700294
[6] = Streptococcus pneumoniae, R6; read-out: Minimal Inhibitory Concentration S. pneumoniae R6

Compound | MIC (B. subtilis ATCC 23857; Bacillus subtilis, ATCC23857, read-out: Minimal Inhibitory Concentration B. subtilis ATCC 23857) [µM] | MIC (S. aureus ATCC 29213; Staphylococcus aureus, ATCC29213, read-out: Minimal Inhibitory Concentration S. aureus ATCC 29213) [µM] | MIC (S. aureus NRS70; Staphylococcus aureus, NRS70, read-out: Minimal Inhibitory Concentration S. aureus NRS70) [µM] | Minimal Inhibitory Concentration S. aureus USA 300 ΔClpP (S. aureus USA 300 ΔClpP) [µM] | MIC (S. pyogenes ATCC 700294; Streptococcus pyogenes, ATCC700294, read-out: Minimal Inhibitory Concentration S. pyogenes ATCC 700294) [µM] | MIC (S. pneumoniae R6; Streptococcus pneumoniae, R6, read-out: Minimal Inhibitory Concentration S. pneumoniae R6) [µM] | IC50 [1] [µM] | MIC (S. aureus USA 300) [µM] | MIC (B. subtilis ATCC 23857; [2]) [µM] | MIC (S. aureus ATCC 29213; [3]) [µM] | MIC (S. aureus NRS70; [4]) [µM] | MIC (S. pyogenes ATCC 700294; [5]) [µM] | MIC (S. pneumoniae R6; [6]) [µM]
Cc1ccc(NC(=O)N[C@@H](Cc2cc(F)cc(F)c2)C(=O)N[C@@H]2C(=O)N3C[C@H](O)CC3C(=O)N(C)[C@@H](C)C(=O)N[C@@H](C)C(=O)N3C[C@@H](C)CC3C(=O)O[C@H]2C)cc1 (stereo partly drawn) [Compound 31, (S)-3-(3,5-Difluorophenyl)-N-((2S,6S,9S,11aS,13R,17S,18S,20aS)-13-Hydroxy-2,6,9,10,18-Pentamethyl-5,8,11,16,20-Pentaoxohexadecahydro-1H,5H,16H-Dipyrrolo[2,1-C:2′,1′-L][1]Oxa[4,7,10,13]Tetraazacyclohexadecin-17-Yl)-2-(3-(P-Tolyl)Ureido)Propanamide] | 0.39 (≈ 0.311 µg/mL) | 0.39 (≈ 0.311 µg/mL) | 0.39 (≈ 0.311 µg/mL) | >200 | 0.78 (≈ 0.622 µg/mL) | 0.195 (≈ 0.156 µg/mL) | > 100 | – | – | – | – | – | –
CCc1ccc(NC(=O)N[C@@H](Cc2cc(F)cc(F)c2)C(=O)N[C@@H]2C(=O)N3CCCC3C(=O)N(C)[C@@H]([C@H](C)O)C(=O)N[C@@H](C)C(=O)N3C[C@@H](C)CC3C(=O)O[C@H]2C)cc1 (stereo partly drawn) [Compound 37, (S)-3-(3,5-Difluorophenyl)-2-(3-(4-Ethylphenyl)Ureido)-N-((2S,6S,9S,11aS,17S,18S,20aS)-9-((S)-1-Hydroxyethyl)-2,6,10,18-Tetramethyl-5,8,11,16,20-Pentaoxohexadecahydro-1H,5H,16H-Dipyrrolo[2,1-C:2′,1′-L][1]Oxa[4,7,10,13]Tetraazacyclohexadecin-17-Yl)Propanamide] | – | – | – | 100 | – | – | – | 0.1 (≈ 0.0826 µg/mL) | 0.05 (≈ 0.0413 µg/mL) | 0.1 (≈ 0.0826 µg/mL) | 0.1 (≈ 0.0826 µg/mL) | 0.1 (≈ 0.0826 µg/mL) | 0.024 (≈ 0.0198 µg/mL)
C[C@@H]1CC2C(=O)O[C@@H](C)[C@H](NC(=O)[C@H](Cc3cc(F)cc(F)c3)NC(=O)Nc3ccc(OC(F)(F)F)cc3)C(=O)N3CCCC3C(=O)N(C)[C@@H]([C@H](C)O)C(=O)N[C@@H](C)C(=O)N2C1 (stereo partly drawn) [Compound 41, (S)-3-(3,5-Difluorophenyl)-N-((2R,6S,9S,11aS,17S,18S,20aS)-9-((S)-1-Hydroxyethyl)-2,6,10,18-Tetramethyl-5,8,11,16,20-Pentaoxohexadecahydro-1H,5H,16H-Dipyrrolo[2,1-C:2′,1′-L][1]Oxa[4,7,10,13]Tetraazacyclohexadecin-17-Yl)-2-(3-(4-(Trifluoromethoxy)Phenyl)Ureido)Propanamide] | – | – | – | 50 | – | – | – | 0.02 (≈ 0.0176 µg/mL) | 0.01 (≈ 0.00882 µg/mL) | 0.02 (≈ 0.0176 µg/mL) | 0.01 (≈ 0.00882 µg/mL) | 0.1 (≈ 0.0882 µg/mL) | 0.02 (≈ 0.0176 µg/mL)
CCc1ccc(NC(=O)N[C@@H](Cc2cc(F)cc(F)c2)C(=O)N[C@@H]2C(=O)N3CCCC3C(=O)N(C)[C@@H]([C@H](C)O)C(=O)N[C@@H](C)C(=O)N3C[C@H](C)CC3C(=O)O[C@H]2C)cc1 (stereo partly drawn) [Compound 42, (S)-3-(3,5-Difluorophenyl)-2-(3-(4-Ethylphenyl)Ureido)-N-((2R,6S,9S,11aS,17S,18S,20aS)-9-((S)-1-Hydroxyethyl)-2,6,10,18-Tetramethyl-5,8,11,16,20-Pentaoxohexadecahydro-1H,5H,16H-Dipyrrolo[2,1-C:2′,1′-L][1]Oxa[4,7,10,13]Tetraazacyclohexadecin-17-Yl)Propanamide] | – | – | – | 100 | – | – | – | 0.1 (≈ 0.0826 µg/mL) | 0.01 (≈ 0.00826 µg/mL) | 0.05 (≈ 0.0413 µg/mL) | 0.02 (≈ 0.0165 µg/mL) | 0.05 (≈ 0.0413 µg/mL) | 0.01 (≈ 0.00826 µg/mL)
